pIC50: −log10 of the molar value.
target: human chemokine receptor CXCR7 (Homo sapiens (Human), UniProt P25106); assay: Tango CXCR7-bla U2OS beta-arrestin recruitment assay (beta-lactamase reporter, FRET), antagonism of CXCL12/SDF1-α; type: cell-based; settings: antagonistic effect on CXCR7; Tango CXCR7-bla U2OS cells, CXCL12/SDF1-α at its EC80;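 also: compounds preincubated 15 min before CXCL12 addition, then 22 h at 37 °C, FRET emission ratio read with CCF4-AM substrate after 2 h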
Sequence (P25106 whole entry): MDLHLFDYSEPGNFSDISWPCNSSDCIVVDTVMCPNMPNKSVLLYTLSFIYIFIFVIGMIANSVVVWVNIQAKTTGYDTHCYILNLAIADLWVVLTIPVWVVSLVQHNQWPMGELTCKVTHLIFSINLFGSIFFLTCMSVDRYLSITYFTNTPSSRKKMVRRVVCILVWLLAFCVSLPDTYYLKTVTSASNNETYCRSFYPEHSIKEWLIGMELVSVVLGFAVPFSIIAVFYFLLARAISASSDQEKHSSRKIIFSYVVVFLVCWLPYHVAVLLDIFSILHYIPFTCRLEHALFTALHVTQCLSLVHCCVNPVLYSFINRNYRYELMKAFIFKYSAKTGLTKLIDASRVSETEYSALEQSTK

Compared with C[C@@H](NC(=O)[C@@H]1CN(CC2CC2)CC[C@H]1NC(=O)c1cc(-c2c(F)cc(F)cc2F)on1)C1CCC1 (single isomer, unassigned) [Example 1.139a, (3R*,4R*)-1-Cyclopropylmethyl-4-{[5-(2,4,6-trifluoro-phenyl)-isoxazole-3-carbonyl]-amino}-piperidine-3-carboxylic acid ((R)-1-cyclobutyl-ethyl)-amide], O=C(N[C@@H]1CCN(CC2CC2)C[C@H]1C(=O)NC1(c2ccccn2)CC1)c1cc(-c2c(F)cc(F)cc2F)on1 (single isomer, unassigned) [Example 1.171a, (3R*,4R*)-1-Cyclopropylmethyl-4-{[5-(2,4,6-trifluoro-phenyl)-isoxazole-3-carbonyl]-amino}-piperidine-3-carboxylic acid (1-pyridin-2-yl-cyclopropyl)-amide] is 2.05 log units higher in pIC50: 6.10 for the first, 8.15 for the second. The second is the more potent here.

First: C[C@@H](NC(=O)[C@@H]1CN(CC2CC2)CC[C@H]1NC(=O)c1cc(-c2c(F)cc(F)cc2F)on1)C1CCC1 (single isomer, unassigned) [Example 1.139b, (3R*,4R*)-1-Cyclopropylmethyl-4-{[5-(2,4,6-trifluoro-phenyl)-isoxazole-3-carbonyl]-amino}-piperidine-3-carboxylic acid ((R)-1-cyclobutyl-ethyl)-amide]
Second: O=C(N[C@@H]1CCN(CC2CC2)C[C@H]1C(=O)NC1(c2ccccn2)CC1)c1cc(-c2c(F)cc(F)cc2F)on1 (single isomer, unassigned) [Example 1.171b, (3R*,4R*)-1-Cyclopropylmethyl-4-{[5-(2,4,6-trifluoro-phenyl)-isoxazole-3-carbonyl]-amino}-piperidine-3-carboxylic acid (1-pyridin-2-yl-cyclopropyl)-amide]
The pIC50 of the first is 1.19 log units higher: 7.54 for the first, 6.35 for the second. The first is the more potent here.

First: C[C@@H](NC(=O)[C@H]1CN(CC2CC2)CC[C@@H]1NC(=O)c1cc(-c2ccc(F)cc2F)no1)c1ccccn1 (single isomer, unassigned) [Example 1.154a, (3S,4S)-1-Cyclopropylmethyl-4-{[3-(2,4-difluoro-phenyl)-isoxazole-5-carbonyl]-amino}-piperidine-3-carboxylic acid ((R)-1-pyridin-2-yl-ethyl)-amide or (3R,4R)-1-Cyclopropylmethyl-4-{[3-(2,4-difluoro-phenyl)-isoxazole-5-carbonyl]-amino}-piperidine-3-carboxylic acid ((R)-1-pyridin-2-yl-ethyl)-amide]
Second: C[C@@H](NC(=O)[C@H]1CN(C2CCCCC2)CC[C@@H]1NC(=O)c1noc(-c2ccc(F)cc2F)n1)c1ccccn1 (single isomer, unassigned) [Example 1.156a, (3S,4S)-1-Cyclohexyl-4-{[5-(2,4-difluoro-phenyl)-[1,2,4]oxadiazole-3-carbonyl]-amino}-piperidine-3-carboxylic acid ((R)-1-pyridin-2-yl-ethyl)-amide or (3R,4R)-1-Cyclohexyl-4-{[5-(2,4-difluoro-phenyl)-[1,2,4]oxadiazole-3-carbonyl]-amino}-piperidine-3-carboxylic acid ((R)-1-pyridin-2-yl-ethyl)-amide]
The pIC50 of the first is 0.38 log units lower: 7.34 for the first, 7.72 for the second. The second is the more potent here.

O=C(N[C@@H]1CCN(C2CCCCC2)C[C@H]1C(=O)NC1(c2ccccn2)CC1)c1cn(-c2ccc(F)cc2F)nn1 (single isomer, unassigned) [Example 1.165a, (3R*,4R*)-1-Cyclohexyl-4-{[1-(2,4-difluoro-phenyl)-1H-[1,2,3]triazole-4-carbonyl]-amino}-piperidine-3-carboxylic acid (1-pyridin-2-yl-cyclopropyl)-amide] and O=C(N[C@H]1CCN(C2CCCC2)C[C@@H]1C(=O)NC1(c2ccccn2)CC1)c1cc(-c2c(F)cc(F)cc2F)on1 (single isomer, unassigned) [Example 1.170a, (3S,4S)-1-Cyclopentyl-4-{[5-(2,4,6-trifluoro-phenyl)-isoxazole-3-carbonyl]-amino}-piperidine-3-carboxylic acid (1-pyridin-2-yl-cyclopropyl)-amide or (3R,4R)-1-Cyclopentyl-4-{[5-(2,4,6-trifluoro-phenyl)-isoxazole-3-carbonyl]-amino}-piperidine-3-carboxylic acid (1-pyridin-2-yl-cyclopropyl)-amide] are within 0.2 log units of each other in pIC50: 7.37 for the first, 7.48 for the second.

First: O=C(N[C@@H]1CCN(C2CCCCC2)C[C@H]1C(=O)NC1(c2ccccn2)CC1)c1cn(-c2ccc(F)cc2F)nn1 (single isomer, unassigned) [Example 1.165b, (3R*,4R*)-1-Cyclohexyl-4-{[1-(2,4-difluoro-phenyl)-1H-[1,2,3]triazole-4-carbonyl]-amino}-piperidine-3-carboxylic acid (1-pyridin-2-yl-cyclopropyl)-amide]
Second: O=C(N[C@H]1CCN(C2CCCC2)C[C@@H]1C(=O)NC1(c2ncccn2)CC1)c1cc(-c2c(F)cc(F)cc2F)on1 (single isomer, unassigned) [Example 1.176a, (3S,4S)-1-Cyclopentyl-4-{[5-(2,4,6-trifluoro-phenyl)-isoxazole-3-carbonyl]-amino}-piperidine-3-carboxylic acid (1-pyrimidin-2-yl-cyclopropyl)-amide or (3R,4R)-1-Cyclopentyl-4-{[5-(2,4,6-trifluoro-phenyl)-isoxazole-3-carbonyl]-amino}-piperidine-3-carboxylic acid (1-pyrimidin-2-yl-cyclopropyl)-amide]
The pIC50 of the first is 2.03 log units lower: 6.27 for the first, 8.30 for the second.

First: Cc1cccc([C@H](C)NC(=O)[C@@H]2CN(C3CCCCC3)CC[C@H]2NC(=O)c2cc(-c3ccc(F)cc3F)on2)n1 (single isomer, unassigned) [Example 1.188.d, (3R*,4R*)-1-Cyclohexyl-4-{[5-(2,4-difluoro-phenyl)-isoxazole-3-carbonyl]-amino}-piperidine-3-carboxylic acid [(S)-1-(6-methyl-pyridin-2-yl)-ethyl]-amide]
Second: Cc1cccc([C@@H](C)NC(=O)[C@@H]2CN(C3CCCCC3)CC[C@H]2NC(=O)c2cc(-c3ccc(F)cc3F)on2)n1 (single isomer, unassigned) [Example 1.188a, (3R*,4R*)-1-Cyclohexyl-4-{[5-(2,4-difluoro-phenyl)-isoxazole-3-carbonyl]-amino}-piperidine-3-carboxylic acid [(R)-1-(6-methyl-pyridin-2-yl)-ethyl]-amide]
The pIC50 of the first is 2.08 log units lower: 6.44 for the first, 8.52 for the second.

First: Cc1cccc([C@@H](C)NC(=O)[C@@H]2CN(C3CCCCC3)CC[C@H]2NC(=O)c2cc(-c3ccc(F)cc3F)on2)n1 (single isomer, unassigned) [Example 1.188b, (3R*,4R*)-1-Cyclohexyl-4-{[5-(2,4-difluoro-phenyl)-isoxazole-3-carbonyl]-amino}-piperidine-3-carboxylic acid [(R)-1-(6-methyl-pyridin-2-yl)-ethyl]-amide]
Second: Cc1cccc([C@H](C)NC(=O)[C@@H]2CN(C3CCCCC3)CC[C@H]2NC(=O)c2cc(-c3ccc(F)cc3F)on2)n1 (single isomer, unassigned) [Example 1.188c, (3R*,4R*)-1-Cyclohexyl-4-{[5-(2,4-difluoro-phenyl)-isoxazole-3-carbonyl]-amino}-piperidine-3-carboxylic acid [(S)-1-(6-methyl-pyridin-2-yl)-ethyl]-amide]
The pIC50 of the first is 0.47 log units lower: 6.28 for the first, 6.75 for the second. The second is the more potent here.

Reference: patent publication US11306078B2, “Piperidine CXCR7 receptor modulators” (IDORSIA PHARMACEUTICALS LTD., priority 2016, dated 2022)
